# Where “and” joins values, the source holds several entries; their conditions need not be identical. Equal values may be shown once. Read-outs that look alike come from different tables or passages of the source.
# Legend:
# [1] = target: T1, cloned human or rodent CNS receptors, channels, and transporters (PDSP panel) (Homo sapiens, UniProt P08173); assay: PDSP GPCR panel primary binding assays at 10 μM; details: primary assay
# T1 construct: expressed in transfected cells
# T1 sequence (P08173 1-479): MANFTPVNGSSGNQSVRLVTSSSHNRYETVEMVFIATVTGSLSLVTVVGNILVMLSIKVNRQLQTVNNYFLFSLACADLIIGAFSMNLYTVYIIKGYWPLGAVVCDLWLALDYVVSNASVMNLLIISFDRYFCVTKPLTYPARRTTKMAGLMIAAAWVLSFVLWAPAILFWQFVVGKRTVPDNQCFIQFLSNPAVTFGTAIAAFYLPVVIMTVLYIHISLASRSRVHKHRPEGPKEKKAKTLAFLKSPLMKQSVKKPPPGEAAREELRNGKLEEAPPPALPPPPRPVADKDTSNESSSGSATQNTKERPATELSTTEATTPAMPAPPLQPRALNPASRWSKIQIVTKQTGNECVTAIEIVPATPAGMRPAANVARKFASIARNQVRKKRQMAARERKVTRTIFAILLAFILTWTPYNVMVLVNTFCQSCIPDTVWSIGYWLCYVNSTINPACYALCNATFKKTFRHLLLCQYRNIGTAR
# Description: (§1) GPCR panel: Screening against the receptors within the PDSP panel offers an assessment of off-target pharmacological activity at cloned human or rodent CNS receptors, channels, and transporters that could confound CNS-related phenotypes. A total of 46–47 primary binding assays were run in quadruplicate on these compounds at 10 μM, with follow-up secondary binding assays in 11-point dose-response in triplicate for select compounds versus select receptors. Secondary binding assays were executed for all receptors where test compound displaced an average of >50% of radio-labeled standard ligand. As an exception, no secondary assays were carried out for H3, PBR, or GABAA. […]
# [2] = target: T2, cloned human or rodent CNS receptors, channels, and transporters (PDSP panel) (Homo sapiens, UniProt P28222); assay: PDSP GPCR panel primary binding assays at 10 μM; details: primary assay
# T2 construct: expressed in transfected cells
# Description: as §1
# [3] = target: T3, cloned human or rodent CNS receptors, channels, and transporters (PDSP panel) (Homo sapiens, UniProt P41595); assay: PDSP GPCR panel primary binding assays at 10 μM; details: primary assay
# T3 construct: expressed in transfected cells
# Description: as §1
# [4] = target: T4, cloned human or rodent CNS receptors, channels, and transporters (PDSP panel) (Homo sapiens, UniProt P46098); assay: PDSP GPCR panel primary binding assays at 10 μM; details: primary assay
# T4 construct: expressed in transfected cells
# T4 sequence (P46098 24-478): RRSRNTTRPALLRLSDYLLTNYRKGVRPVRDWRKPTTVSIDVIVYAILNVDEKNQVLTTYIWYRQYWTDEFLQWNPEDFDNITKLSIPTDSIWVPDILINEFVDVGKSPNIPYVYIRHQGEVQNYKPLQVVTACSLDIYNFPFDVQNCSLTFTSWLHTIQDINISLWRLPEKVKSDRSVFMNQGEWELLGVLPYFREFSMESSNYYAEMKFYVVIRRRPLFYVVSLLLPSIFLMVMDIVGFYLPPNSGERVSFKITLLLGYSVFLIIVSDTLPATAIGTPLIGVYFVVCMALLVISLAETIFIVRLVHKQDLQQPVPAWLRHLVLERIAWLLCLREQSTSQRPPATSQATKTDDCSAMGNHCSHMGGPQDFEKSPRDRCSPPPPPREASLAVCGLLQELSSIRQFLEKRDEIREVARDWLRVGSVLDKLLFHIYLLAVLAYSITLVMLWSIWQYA
# Description: as §1
# [5] = target: T5, cloned human or rodent CNS receptors, channels, and transporters (PDSP panel) (Homo sapiens, UniProt P47898); assay: PDSP GPCR panel primary binding assays at 10 μM; details: primary assay
# T5 construct: expressed in transfected cells
# Description: as §1
# [6] = target: T6, cloned human or rodent CNS receptors, channels, and transporters (PDSP panel) (Homo sapiens, UniProt P50406); assay: PDSP GPCR panel primary binding assays at 10 μM; details: primary assay
# T6 construct: expressed in transfected cells
# Description: as §1
# [7] = Snapshot IV PK in CD1 mice; format: in vivo; details: for clearance: CD1, mouse, plasma, iv, 3 mg/kg; for Cmax / half-life / Vd: CD1, plasma; for Vd: read-out: Vss
# Description: PK data: For snapshot PK studies, pooled plasma was analyzed at 0.5h, 1h, 2h, and 4h following
# a single IV dose (3 mg/kg) in CD1 mice (2 mice per cohort) for each compound (Table 2). […]
# cellular system = test system: cellular system; set-up: method as in column References for potency and dosing (the 5th table c13); details: published data; References for potency and dosing; cited from earlier work
# [8] = cited from earlier work
# T2 sequence (P28222 whole entry): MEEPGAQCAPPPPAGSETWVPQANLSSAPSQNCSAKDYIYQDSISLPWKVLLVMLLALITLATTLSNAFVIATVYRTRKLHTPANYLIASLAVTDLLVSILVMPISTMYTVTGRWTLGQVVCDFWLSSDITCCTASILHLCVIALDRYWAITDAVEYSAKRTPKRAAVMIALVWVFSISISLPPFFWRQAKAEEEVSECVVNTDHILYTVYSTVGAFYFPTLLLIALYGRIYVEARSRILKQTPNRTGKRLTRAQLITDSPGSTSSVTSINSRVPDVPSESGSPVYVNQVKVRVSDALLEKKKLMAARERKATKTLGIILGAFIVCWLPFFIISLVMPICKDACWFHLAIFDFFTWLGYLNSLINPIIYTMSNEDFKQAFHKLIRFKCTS
# T6 sequence (P50406 whole entry): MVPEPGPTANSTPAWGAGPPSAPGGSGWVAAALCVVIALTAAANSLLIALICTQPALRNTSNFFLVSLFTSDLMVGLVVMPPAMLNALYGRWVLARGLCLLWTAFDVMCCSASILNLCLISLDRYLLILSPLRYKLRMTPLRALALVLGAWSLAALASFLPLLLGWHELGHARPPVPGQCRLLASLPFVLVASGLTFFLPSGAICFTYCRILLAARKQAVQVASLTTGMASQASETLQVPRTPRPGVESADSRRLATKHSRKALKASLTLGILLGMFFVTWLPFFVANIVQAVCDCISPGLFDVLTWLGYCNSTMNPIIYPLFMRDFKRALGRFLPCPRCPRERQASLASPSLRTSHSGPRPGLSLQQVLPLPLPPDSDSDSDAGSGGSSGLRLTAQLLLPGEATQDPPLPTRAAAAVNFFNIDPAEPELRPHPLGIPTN
# T3 sequence (P41595 whole entry): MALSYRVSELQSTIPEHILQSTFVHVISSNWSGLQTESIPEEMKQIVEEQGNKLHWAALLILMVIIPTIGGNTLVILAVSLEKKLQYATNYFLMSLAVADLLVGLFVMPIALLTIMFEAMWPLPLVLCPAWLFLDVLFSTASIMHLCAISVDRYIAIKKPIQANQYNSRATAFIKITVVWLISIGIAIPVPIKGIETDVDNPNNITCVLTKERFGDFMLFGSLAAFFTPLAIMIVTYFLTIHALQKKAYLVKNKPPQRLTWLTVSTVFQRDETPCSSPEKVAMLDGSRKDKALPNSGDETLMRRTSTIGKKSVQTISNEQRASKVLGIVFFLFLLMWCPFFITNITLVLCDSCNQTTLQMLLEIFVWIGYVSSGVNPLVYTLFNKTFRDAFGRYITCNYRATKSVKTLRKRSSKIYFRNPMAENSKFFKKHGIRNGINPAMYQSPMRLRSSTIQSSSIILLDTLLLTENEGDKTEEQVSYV
# T5 sequence (P47898 whole entry): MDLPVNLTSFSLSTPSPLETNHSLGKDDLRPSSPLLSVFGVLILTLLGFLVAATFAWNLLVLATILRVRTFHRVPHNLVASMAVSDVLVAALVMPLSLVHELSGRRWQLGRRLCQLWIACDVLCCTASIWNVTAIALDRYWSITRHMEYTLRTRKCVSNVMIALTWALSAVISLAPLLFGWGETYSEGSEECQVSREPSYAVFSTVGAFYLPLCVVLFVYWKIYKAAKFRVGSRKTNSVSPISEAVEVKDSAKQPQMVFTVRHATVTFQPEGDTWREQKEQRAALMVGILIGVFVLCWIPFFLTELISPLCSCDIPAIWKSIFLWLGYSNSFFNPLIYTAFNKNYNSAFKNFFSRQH
structure (smiles),measurement,setting,value
"Cl.NC(=O)c1cnc(N[C@@H]2CCCC[C@@H]2N)nc1Nc1cccc(-n2nccn2)c1 [UNC10302682A, P505-15 (PRT06207 HCl)]",Inhibition 1,"[1]; Receptor M4, 10 μM",24.23%
same,Inhibition 2,"[1]; Receptor M4, 10 μM",6.78%
same,Inhibition 3,"[1]; Receptor M4, 10 μM",21.48%
same,Inhibition 4,"[1]; Receptor M4, 10 μM",18.49%
same,Mean %,"[1]; Receptor M4, 10 μM, mean of Inhibition 1-4",17.75%
same,Inhibition 1,"[2]; Receptor 5-HT1B, 10 μM",53.66%
same,Inhibition 2,"[2]; Receptor 5-HT1B, 10 μM",22.41%
same,Inhibition 3,"[2]; Receptor 5-HT1B, 10 μM",27.71%
same,Inhibition 4,"[2]; Receptor 5-HT1B, 10 μM",32.24%
same,Mean %,"[2]; Receptor 5-HT1B, 10 μM, mean of Inhibition 1-4",34.01%
same,Inhibition 1,"[3]; Receptor 5-HT2B, 10 μM",19.24%
same,Inhibition 2,"[3]; Receptor 5-HT2B, 10 μM",3.3%
same,Inhibition 3,"[3]; Receptor 5-HT2B, 10 μM",-9.28%
same,Inhibition 4,"[3]; Receptor 5-HT2B, 10 μM",-13.48%
same,Mean %,"[3]; Receptor 5-HT2B, 10 μM, mean of Inhibition 1-4",-0.06%
same,Inhibition 1,"[4]; Receptor 5-HT3, 10 μM",66.83%
same,Inhibition 2,"[4]; Receptor 5-HT3, 10 μM",77.09%
same,Inhibition 3,"[4]; Receptor 5-HT3, 10 μM",73.28%
same,Inhibition 4,"[4]; Receptor 5-HT3, 10 μM",75.45%
same,Mean %,"[4]; Receptor 5-HT3, 10 μM, mean of Inhibition 1-4",73.16%
same,Inhibition 1,"[5]; Receptor 5-HT5A, 10 μM",-3.51%
same,Inhibition 2,"[5]; Receptor 5-HT5A, 10 μM",-8.26%
same,Inhibition 3,"[5]; Receptor 5-HT5A, 10 μM",4.4%
same,Inhibition 4,"[5]; Receptor 5-HT5A, 10 μM",6.38%
same,Mean %,"[5]; Receptor 5-HT5A, 10 μM, mean of Inhibition 1-4",-0.25%
same,Inhibition 1,"[6]; Receptor 5-HT6, 10 μM",-1.07%
same,Inhibition 2,"[6]; Receptor 5-HT6, 10 μM",-19.49%
same,Inhibition 3,"[6]; Receptor 5-HT6, 10 μM",-2.98%
same,Inhibition 4,"[6]; Receptor 5-HT6, 10 μM",-7.9%
same,Mean %,"[6]; Receptor 5-HT6, 10 μM, mean of Inhibition 1-4",-7.86%
same,clearance,[7],49.7 mL/min/kg
same,Cmax,"[7]; mouse, 3.0 mg/kg",595 ng/mL
same,half-life,"[7]; mouse, 3.0 mg/kg",98.4 min
same,Vd,"[7]; mouse, 3.0 mg/kg",6.26 L/kg
same,Reported as cell active (<10 μM),cellular system,Y (Published data supports that the compound is active in a cellular system when dosed at 10 μM (Y/N))
same,Kinetic solubility,"[8]; aqueous, neutral pH (7.4)",118.2 µM
"CC(=O)N1CCC(NC(=O)NC23CC4CC(CC(C4)C2)C3)CC1 [UNC10302683A, AR9281]",Mean %,"[1]; M4, mean inhibition",12.52%
same,Inhibition 1,"[1]; M4, replicate 1",4.48%
same,Inhibition 2,"[1]; M4, replicate 2",16.88%
same,Inhibition 3,"[1]; M4, replicate 3",4.25%
same,Inhibition 4,"[1]; M4, replicate 4",24.46%
same,Mean %,"[2]; 5-HT1B, mean inhibition",-0.64%
same,Inhibition 1,"[2]; 5-HT1B, replicate 1",23.19%
same,Inhibition 2,"[2]; 5-HT1B, replicate 2",-3.93%
same,Inhibition 3,"[2]; 5-HT1B, replicate 3",-10.42%
same,Inhibition 4,"[2]; 5-HT1B, replicate 4",-11.4%
same,Mean %,"[3]; 5-HT2B, mean inhibition",-14.63%
same,Inhibition 1,"[3]; 5-HT2B, replicate 1",28.05%
same,Inhibition 2,"[3]; 5-HT2B, replicate 2",-19.35%
same,Inhibition 3,"[3]; 5-HT2B, replicate 3",-37.81%
same,Inhibition 4,"[3]; 5-HT2B, replicate 4",-29.42%
same,Mean %,"[4]; 5-HT3, mean inhibition",13.87%
same,Inhibition 1,"[4]; 5-HT3, replicate 1",9.48%
same,Inhibition 2,"[4]; 5-HT3, replicate 2",13.6%
same,Inhibition 3,"[4]; 5-HT3, replicate 3",-1.71%
same,Inhibition 4,"[4]; 5-HT3, replicate 4",34.11%
same,Mean %,"[5]; 5-HT5A, mean inhibition",-4.79% and -3.44%
same,Inhibition 1,"[5]; 5-HT5A, replicate 1",13.38% and 13.31%
same,Inhibition 2,"[5]; 5-HT5A, replicate 2",8.95% and -14.87%
same,Inhibition 3,"[5]; 5-HT5A, replicate 3",-49.4% and -7.36%
same,Inhibition 4,"[5]; 5-HT5A, replicate 4",7.91% and -4.85%
same,Mean %,"[6]; 5-HT6, mean inhibition",9.33%
same,Inhibition 1,"[6]; 5-HT6, replicate 1",32.27%
same,Inhibition 2,"[6]; 5-HT6, replicate 2",17.51%
same,Inhibition 3,"[6]; 5-HT6, replicate 3",-5.68%
same,Inhibition 4,"[6]; 5-HT6, replicate 4",-6.79%
same,clearance,[7],93 mL/min/kg
same,Cmax,"[7]; mouse, 3.0 mg/kg",1830 ng/mL
same,half-life,"[7]; mouse, 3.0 mg/kg",14.4 min
same,Vd,"[7]; mouse, 3.0 mg/kg",0.47 L/kg
same,CL,"[7]; mouse, 3.0 mg/kg",93.1 mL/min/kg
same,Reported as cell active (<10 μM),cellular system,Y (Published data supports that the compound is active in a cellular system when dosed at 10 μM (Y/N))
same,Kinetic solubility,[8]; pH 7.4,162.6 µM

# Source: article PMC9005681, “Use of AD Informer Set compounds to explore validity of novel targets in Alzheimer's disease pathology” (Alzheimer's & Dementia : Translational Research & Clinical …, 2022)
